Non-standard residues stand in square brackets, D forms with d. Residues, ends and D or L forms follow the SMILES beside them. *: point of attachment. X1 = O=C(O)CN1CCN(CC(=O)O)CCN([C@H](CCC(=O)*)C(=O)O)CCN(CC(=O)O)CC1; Benzoyl(4-SiFtBu2) = CC(C)(C)[Si](F)(c1ccc(C(=O)*)cc1)C(C)(C)C; Nle = CCCC[C@H](N)C(=O)O; dDap = NC[C@@H](N)C(=O)O
Tests used:
[1] = tested on: AR42J tumour-bearing CB17-SCID mice; assay: Biodistribution at 24 h p.i. in AR42J tumour-bearing CB17-SCID mice; format: in vivo; conditions: vs [177Lu]Lu-DOTA-PP-F11N
Description: Figure 4 Biodistribution of the reference compound, [^177Lu]Lu-DOTA-PP-F11N (blue), the α-linked [^177Lu]Lu-(R)-DOTAGA-rhCCK-9 (red) and the γ-linked [^177Lu]Lu-(R)-DOTAGA-rhCCK-16 (green) in selected organs (%ID/g) at 24 h p.i. in AR42J tumour-bearing CB17-SCID mice (100 pmol each, n = 4). Data is expressed as mean ± SD.
All animal experiments were conducted in accordance with general animal welfare regulations in Germany (German animal protection act, in the edition of the announcement, dated 18 May 2006, as amended by Article 280 of 19 June 2020, approval no. ROB-55.2-1-2532.Vet_02-18-109 by the General Administration of Upper Bavaria) and the institutional guidelines for the care and use of animals. CB17-SCID mice of both genders and aged 2–12 months (Charles River Laboratories International Inc., Sulzfeld, Germany) were allowed to acclimate at the in-house animal facility for at least one week prior to tumour cell inoculation was performed. Tumour xenografts were generated using AR42J cells (5.0 × 10^6 cells per 200 µL) suspended in a 1/1 mixture (v/v) of RPMI 1640 medium and Cultrex® Basement Membrane Matrix Type 3 (Trevigen, Gaithersburg, MD, USA). This suspension was inoculated subcutaneously onto the right shoulder and animals were used when tumour volume was >100 mm^3 (1–2 week after inoculation). Exclusion criteria for animals from an experiment were either weight loss higher than 20%, a tumour size above 1500 mm^3, an ulceration of the tumour, respiratory distress or a change of behaviour. None of these criteria applied to any animal from the experiment. Neither randomisation nor blinding was applied in the allocation of the experiments. Health status is SPF according to FELASA.
For biodistribution studies, the ^177Lu-labelled compound (approx. 2–3 MBq, 100 pmol) was injected into a lateral tail vein (n = 4) of anesthetised (2% isoflurane) AR42J tumour-bearing CB-17-SCID mice. At 24 h post-injection (p.i.), the mice were euthanised. Thereafter, the pertinent organs were removed, weighed and measured using a γ-counter.

CCK-2R = target: T1, CCK-2R (Rattus norvegicus, UniProt P30553); assay: CCK-2R-mediated internalisation and total cell uptake on AR42J cells; format: cell-based; conditions: for Total cell uptake (%) / Internalisation Values (%): % of applied activity, AR42J cells, 37 °C, 0.25 pmol/well; for Internalisation Values (%): corrected for non-specific binding; for Internalisation Values (% of reference): % of the reference [177Lu]Lu-DOTA-PP-F11N
T1 construct: CCK-2R expressing rat pancreatic cancer cells AR42J (CLS GmbH, Eppelheim,; host or cells: AR42J rat pancreatic cancer cells
T1 sequence (P30553 1-452): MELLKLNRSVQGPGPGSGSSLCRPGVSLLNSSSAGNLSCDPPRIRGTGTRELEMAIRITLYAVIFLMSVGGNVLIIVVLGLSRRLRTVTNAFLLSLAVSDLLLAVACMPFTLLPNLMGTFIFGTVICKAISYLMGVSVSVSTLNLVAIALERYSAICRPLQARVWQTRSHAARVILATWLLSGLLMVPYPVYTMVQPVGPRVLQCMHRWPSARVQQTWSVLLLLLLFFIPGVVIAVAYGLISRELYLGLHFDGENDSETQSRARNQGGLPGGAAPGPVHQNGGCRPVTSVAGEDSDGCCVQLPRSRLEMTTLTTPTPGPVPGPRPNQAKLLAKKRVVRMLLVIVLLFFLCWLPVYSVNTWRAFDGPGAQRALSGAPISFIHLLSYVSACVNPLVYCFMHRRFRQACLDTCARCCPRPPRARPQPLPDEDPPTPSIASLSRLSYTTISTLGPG
Description: Figure 3 (a) CCK-2R-mediated internalisation ([…]) on AR42J cells as percent (%) of the applied activity (incubation at 37 °C for 1, 2, 4 and 6 h, RPMI 1640, 5 mM L-Gln, 5 mL non-essential amino acids (100×), 10% FCS + 5% BSA (v/v), 3.0 × 10^5 cells/mL/well). (b) CCK-2R mediated internalisation (% of the reference [^177Lu]Lu-DOTA-PP-F11N) of [^177Lu]Lu-CP04 (grey), [^177Lu]Lu-(R)-DOTAGA-rhCCK-9 (red) and [^177Lu]Lu-(R)-DOTAGA-rhCCK-16 (green) after incubation for 6 h.
Internalisation studies of the ^177Lu-labelled conjugates (0.3 pmol) were performed on AR42J cells (3.0 × 10^5 cells per 1 mL/well) at 37 °C for 1, 2, 4 and 6 h (n = 3). Data were corrected for non-specific binding (competition by 10^−4 M [^natLu]Lu-DOTA-PP-F11N).
Cell Culture. CCK-2R expressing rat pancreatic cancer cells AR42J (CLS GmbH, Eppelheim, Germany) were cultivated in monolayers in CELLSTAR ® cell culture flasks acquired from Greiner Bio-One GmbH (Frickenhausen, Germany) at 37 °C in a humidified atmosphere (5% CO2) using a HERAcell 150i-Incubator (Thermo Fisher Scientific Inc., Waltham, United States). As nutrient medium RPMI 1640 medium, supplemented with 5 mM L-Gln 5 mL non-essential amino acids (100×) and 10% FCS, was used. Furthermore, a Dulbecco’s PBS solution with 0.1% EDTA (v/v) was applied to detach the cells for cell passaging. The detached cells were counted using a Neubauer hemocytometer ( Paul Marienfeld, Lauda-Königshofen, Germany). In addition, all operations under sterile conditions were accomplished using a MSC-Advantage safety workbench (Thermo Fisher Scientific Inc., Waltham, United States). […]
Internalisation Studies. For the determination of the internalisation kinetics of the various peptides, AR42J cells (3.0 × 10^5 cells/well) were seeded into polylysine coated 24-well plates adding 1 mL of nutrient medium. Afterwards, the cells were incubated for 24 ± 2 h at 37 °C in a humidified atmosphere […]
On the day of the experiment, the medium was removed, and each well was washed with nutrient medium (300 µL). Afterwards 200 µL of nutrient medium, 25 µL of the 177Lu-labeled peptide (0.3 pmol, n = 6) and either 25 µL of nutrient medium for internali sation studies (n = 3) or 25 µL of [natLu]Lu-DOTA-PP-F11N ([…]) for competition studies (n = 3) were added. Thereafter, the assay was incubated for various time points (1, 2, 4and 6 h) at 37 °C in a humidified atmosphere (5% CO2). After incubation, the cells were put on ice for at least 1 min to stop internalisation kinetics and the supernatant was collected. Then, the cells were washed with an ice-cold nutrient medium (300 µL) and both fractions were unified. For the acid wash, 300 µL of an ice-cold glycine buffer ([…] lysis of the cells with NaOH (300 μL, 1 N) for 15 min, the respective wells were washed with NaOH (300 μL, 1 N) and both fractions were unified. The radioactivity of the supernatant, the acid wash and the lysed fractions were quantified using a γ-counter.

| SMILES | fold higher activity levels in the tumour than the reference ligand [1] [fold] | Total cell uptake (%) (CCK-2R; 1 h) | Internalisation Values (%) (CCK-2R; 1 h) | Total cell uptake (%) (CCK-2R; 2 h) | Internalisation Values (%) (CCK-2R; 2 h) | Total cell uptake (%) (CCK-2R; 4 h) | Internalisation Values (%) (CCK-2R; 4 h) | Total cell uptake (%) (CCK-2R; 6 h) | Internalisation Values (%) (CCK-2R; 6 h) | Internalisation Values (% of reference) (CCK-2R; 6 h) |
| --- | --- | --- | --- | --- | --- | --- | --- | --- | --- | --- |
| CCCC[C@H](NC(=O)[C@H](Cc1c[nH]c2ccccc12)NC(=O)CNC(=O)[C@H](Cc1ccc(O)cc1)NC(=O)[C@H](C)NC(=O)[C@@H](CCC(=O)O)NC(=O)[C@@H](CCC(=O)O)NC(=O)[C@@H](CCC(=O)O)NC(=O)[C@@H](CCC(=O)O)NC(=O)[C@@H](CCC(=O)O)NC(=O)[C@@H](CCC(=O)O)NC(=O)[C@@H](CCC(=O)O)NC(=O)[C@@H](CCC(=O)O)NC(=O)[C@@H](CNC(=O)c1ccc([Si](F)(C(C)(C)C)C(C)(C)C)cc1)NC(=O)CC[C@H](C(=O)O)N1CCN(CC(=O)O)CCN(CC(=O)O)CCN(CC(=O)O)CC1)C(=O)N[C@@H](CC(=O)O)C(=O)N[C@@H](Cc1ccccc1)C(N)=O [[nat/177Lu]Lu-(R)-DOTAGA-rhCCK-9, metal not drawn] (X1-[dDap](Benzoyl(4-SiFtBu2))[dE][dE][dE][dE][dE][dE][dE][dE]AYGW[Nle]DF-NH2) | 3 | 2.25 ± 0.23 | 2.08 ± 0.12 | 3.46 ± 0.56 | 3.44 ± 0.55 | 8.31 ± 0.59 | 8.01 ± 0.53 | 13.4 ± 0.7 | 13.2 ± 0.5 | 65.7 ± 2.5 % of reference |
| CSCC[C@H](NC(=O)[C@H](Cc1c[nH]c2ccccc12)NC(=O)CNC(=O)[C@H](Cc1ccc(O)cc1)NC(=O)[C@H](C)NC(=O)[C@@H](CCC(=O)O)NC(=O)[C@@H](CCC(=O)O)NC(=O)[C@@H](CCC(=O)O)NC(=O)[C@@H](CCC(=O)O)NC(=O)[C@@H](CCC(=O)O)NC(=O)[C@@H](CCC(=O)O)NC(=O)CN1CCN(CC(=O)O)CCN(CC(=O)O)CCN(CC(=O)O)CC1)C(=O)N[C@@H](CC(=O)O)C(=O)N[C@@H](Cc1ccccc1)C(N)=O [[nat/177Lu]Lu-CP04, metal not drawn, reference compound] |  | 6.00 ± 0.42 | 5.16 ± 0.44 | 10.0 ± 0.4 | 9.33 ± 0.36 | 16.5 ± 0.9 | 15.4 ± 0.7 |  | 20.5 ± 0.5 | 91.6 ± 2.4 % of reference |
| CCCC[C@H](NC(=O)[C@H](Cc1c[nH]c2ccccc12)NC(=O)CNC(=O)[C@H](Cc1ccc(O)cc1)NC(=O)[C@H](C)NC(=O)[C@@H](CCC(=O)O)NC(=O)[C@@H](CCC(=O)O)NC(=O)[C@@H](CCC(=O)O)NC(=O)[C@@H](CCC(=O)O)NC(=O)[C@@H](CCC(=O)O)NC(=O)[C@@H](CCC(=O)O)NC(=O)CN1CCN(CC(=O)O)CCN(CC(=O)O)CCN(CC(=O)O)CC1)C(=O)N[C@@H](CC(=O)O)C(=O)N[C@@H](Cc1ccccc1)C(N)=O [[nat/177Lu]Lu-DOTA-PP-F11N, metal not drawn, reference compound] |  | 7.03 ± 1.45 | 6.44 ± 0.32 | 10.6 ± 1.5 | 10.1 ± 0.4 | 18.5 ± 2.5 | 17.5 ± 1.0 | 23.5 ± 1.4 | 22.4 ± 0.6 |  |
| CCCC[C@H](NC(=O)[C@H](Cc1c[nH]c2ccccc12)NC(=O)CNC(=O)[C@H](Cc1ccc(O)cc1)NC(=O)[C@H](C)NC(=O)CC[C@@H](NC(=O)CC[C@@H](NC(=O)CC[C@@H](NC(=O)CC[C@@H](NC(=O)CC[C@@H](NC(=O)CC[C@@H](NC(=O)[C@@H](CNC(=O)c1ccc([Si](F)(C(C)(C)C)C(C)(C)C)cc1)NC(=O)CC[C@H](C(=O)O)N1CCN(CC(=O)O)CCN(CC(=O)O)CCN(CC(=O)O)CC1)C(=O)O)C(=O)O)C(=O)O)C(=O)O)C(=O)O)C(=O)O)C(=O)N[C@@H](CC(=O)O)C(=O)N[C@@H](Cc1ccccc1)C(N)=O [[nat/177Lu]Lu-(R)-DOTAGA-rhCCK-16, metal not drawn] | 8 | 8.37 ± 0.07 | 7.63 ± 0.13 | 14.4 ± 1.3 | 14.0 ± 1.3 | 23.6 ± 2.8 | 23.2 ± 2.7 | 32.8 ± 2.3 | 32.2 ± 2.1 | 135 ± 9 % of reference |
